# Experimental data reported in PMC5384750 (PLoS ONE, 2017).
# Key:
# [1] = system: IDE (S10 extract or rIDE); format: in vitro ADME; details: 20 ng sp6 or 30 ng vp6 with 5 μg S10 extract or 2 ng rIDE, up to 60 min; Western blot densitometry; at least 3 independent experiments per setting; value depends on the experimental setting
# Method: Fig 9 Multiplication of PTAPPA-motifs stabilizes p6. 20 ng of sp6 or 30 ng of vp6 were incubated either with 5 μg S10 extract (A/B/C) or 2 ng of rIDE (D) for up to 60 min. Degradation efficiency was quantified via densitometric analyses of Western blots. Values represent the arithmetic mean ± SD of at least 3 independent experiments for each setting.
# Typically 5 μg S10 were incubated with inhibitor or buffer and 20–100 ng sp6 at 37°C for 30 min. Reactions were stopped by addition of sample buffer and incubation at 95°C for 5 min. Remaining p6 was detected by Western blotting using an anti-p6 rabbit antiserum. Alternatively, 10 ng of BODIPY FL-labeled sp6 (sp6BY) were used as substrate and detected directly in the polyacrylamide gel by fluorescence scanning. In some experiments the amount of p6 was densitometrically quantified with the software AIDA (Raytest). For the in vitro degradation of amyloid-β 10 ng of Aβ-FITC (abcam) were used analogously to sp6BY. For the in vitro degradation of viral p6, VLPs were pelleted and lysed in IDE enzyme buffer (150 mM NaCl, 50 mM Tris pH 7.4, 0.5% (v/v) Triton X-100). The p6 content was estimated by Western blotting using a dilution series of sp6 with known concentrations. Equivalents of 15 ng were used for digestion experiments and subsequently detected by Western blotting. […]
# [2] = molecular target: T1, insulin-degrading enzyme (IDE) (Homo sapiens, UniProt P14735); assay: Inhibition of Aβ-FITC degradation in S10 extract; format: biochemical; details: 10 ng FITC-labeled Aβ 1–40, 5 μg S10, 45 min, 37°C; fluorescence; four independent experiments
# T1 construct: endogenous in cells; host or cells: HeLa cells (cytosolic S10 extract)
# T1 sequence (P14735 whole entry): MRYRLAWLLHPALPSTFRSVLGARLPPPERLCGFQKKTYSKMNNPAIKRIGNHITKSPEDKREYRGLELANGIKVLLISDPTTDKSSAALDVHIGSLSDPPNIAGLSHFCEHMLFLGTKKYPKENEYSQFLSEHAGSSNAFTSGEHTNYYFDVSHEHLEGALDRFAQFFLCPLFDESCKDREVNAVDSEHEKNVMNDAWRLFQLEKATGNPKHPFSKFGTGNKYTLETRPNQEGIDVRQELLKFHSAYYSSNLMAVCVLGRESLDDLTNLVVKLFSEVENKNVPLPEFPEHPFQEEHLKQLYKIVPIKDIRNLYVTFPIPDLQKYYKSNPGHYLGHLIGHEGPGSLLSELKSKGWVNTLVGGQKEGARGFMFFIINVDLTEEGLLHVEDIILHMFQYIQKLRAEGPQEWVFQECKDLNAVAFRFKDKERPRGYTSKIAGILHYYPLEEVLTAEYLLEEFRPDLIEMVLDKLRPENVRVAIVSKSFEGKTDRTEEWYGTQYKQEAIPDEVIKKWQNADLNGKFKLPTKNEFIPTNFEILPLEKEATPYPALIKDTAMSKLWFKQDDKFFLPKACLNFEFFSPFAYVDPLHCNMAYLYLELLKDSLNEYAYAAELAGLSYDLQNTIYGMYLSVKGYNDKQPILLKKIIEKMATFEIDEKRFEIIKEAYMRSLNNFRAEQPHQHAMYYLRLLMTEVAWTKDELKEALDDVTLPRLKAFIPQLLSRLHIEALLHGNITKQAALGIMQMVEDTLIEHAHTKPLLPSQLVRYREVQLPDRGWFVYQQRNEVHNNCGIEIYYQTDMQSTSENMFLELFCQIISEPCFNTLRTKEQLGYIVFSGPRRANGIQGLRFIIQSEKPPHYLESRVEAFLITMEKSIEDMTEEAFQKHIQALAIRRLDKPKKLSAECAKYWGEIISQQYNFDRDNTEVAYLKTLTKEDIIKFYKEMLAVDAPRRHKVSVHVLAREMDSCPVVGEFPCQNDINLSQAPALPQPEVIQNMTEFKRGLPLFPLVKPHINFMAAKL
# Method: […] Reactions were stopped by addition of sample buffer and incubation at 95°C for 5 min. Remaining p6 was detected by Western blotting using an anti-p6 rabbit antiserum. Alternatively, 10 ng of BODIPY FL-labeled sp6 (sp6BY) were used as substrate and detected directly in the polyacrylamide gel by fluorescence scanning. In some experiments the amount of p6 was densitometrically quantified with the software AIDA (Raytest). For the in vitro degradation of amyloid-β 10 ng of Aβ-FITC (abcam) were used analogously to sp6BY. For the in vitro degradation of viral p6, VLPs were pelleted and lysed in IDE enzyme buffer (150 mM NaCl, 50 mM Tris pH 7.4, 0.5% (v/v) Triton X-100). The p6 content was estimated by Western blotting using a dilution series of sp6 with known concentrations. Equivalents of 15 ng were used for digestion experiments and subsequently detected by Western blotting. Experiments carried out with recombinant IDE (Calbiochem) were performed in IDE enzyme buffer. Recombinant FITC-labeled insulin was purchased from Sigma.
# Supplementary file pone.0174254.s003.tif: S3 Fig p6 competes with the in vitro degradation of Aβ. […] Aβ-FITC was detected by measurement of fluorescence excitation. The band marked with * represents Aβ-oligomers and has been described earlier. (B) Band intensities were quantified for four independent experiments and values represent the arithmetic mean ± SD. […]
# [3] = In vitro degradation in cytosolic S10 HeLa cell extract; format: in vitro ADME; details: human, cytosolic S10 HeLa cell extract; 100 ng sp6, 5 μg S10 extract from HeLa cells, 37°C; Western blot (anti-p6), quantified; estimated from exponential decay; mean of 4 independent experiments
# Method: (§1) For generation of S10, confluent dishes with HeLa cells were extensively washed and subsequently lysed with a modified S10 buffer (250 mM sucrose, 80 mM KCl, 10 mM Tris pH 7.6, 0.1% (v/v) Triton X-100 [91]). Debris and nuclei were removed by centrifugation at 10.000 × g for 10 min. Protein content was determined by BCA-Assay (Pierce) and aliquots stored at -80°C.
# Typically 5 μg S10 were incubated with inhibitor or buffer and 20–100 ng sp6 at 37°C for 30 min. Reactions were stopped by addition of sample buffer and incubation at 95°C for 5 min. Remaining p6 was detected by Western blotting using an anti-p6 rabbit antiserum. Alternatively, 10 ng of BODIPY FL-labeled sp6 (sp6BY) were used as substrate and detected directly in the polyacrylamide gel by fluorescence scanning. In some experiments the amount of p6 was densitometrically quantified with the software AIDA (Raytest). For the in vitro degradation of amyloid-β 10 ng of Aβ-FITC (abcam) were used analogously to sp6BY. For the in vitro degradation of viral p6, VLPs were pelleted and lysed in IDE enzyme buffer (150 mM NaCl, 50 mM Tris pH 7.4, 0.5% (v/v) Triton X-100). The p6 content was estimated by Western blotting using a dilution series of sp6 with known concentrations. Equivalents of 15 ng were used for digestion experiments and subsequently detected by Western blotting. Experiments carried out with recombinant IDE (Calbiochem) were performed in IDE enzyme buffer. Recombinant FITC-labeled insulin was purchased from Sigma.
# [4] = molecular target: T1, insulin-degrading enzyme (IDE); assay: Inhibition of / competition with sp6 or sp6BY degradation in S10 extract; format: biochemical; details: 10 ng sp6BY, 5 μg S10 extract, 30 min, 37°C; fluorescence; mean of at least three independent experiments
# Method: as §1
# Reactions were stopped by addition of sample buffer and incubation at 95°C for 5 min. Remaining p6 was detected by Western blotting using an anti-p6 rabbit antiserum. Alternatively, 10 ng of BODIPY FL-labeled sp6 (sp6BY) were used as substrate and detected directly in the polyacrylamide gel by fluorescence scanning. In some experiments the amount of p6 was densitometrically quantified with the software AIDA (Raytest). For the in vitro degradation of amyloid-β 10 ng of Aβ-FITC (abcam) were used analogously to sp6BY. For the in vitro degradation of viral p6, VLPs were pelleted and lysed in IDE enzyme buffer (150 mM NaCl, 50 mM Tris pH 7.4, 0.5% (v/v) Triton X-100). The p6 content was estimated by Western blotting using a dilution series of sp6 with known concentrations. Equivalents of 15 ng were used for digestion experiments and subsequently detected by Western blotting. Experiments carried out with recombinant IDE (Calbiochem) were performed in IDE enzyme buffer.
# Bestatin, Chymostatin, E-64, Leupeptin, Pepstatin, Phosphoramidon, Pefabloc SC, EDTA, Aprotinin, Antipain were purchased from Roche as part of a protease inhibitors set and used at the following concentrations: 74 μM Antipain; 130 μM Bestatin; 100 μM Chymostatin; 28 μM E-64; 1 μM Leupeptin; 1 μM Pepstatin; 600 nM Phosphoramidon; 4 mM Pefabloc SC; 1.3 mM EDTA; […]. […] (Phoenix Pharmaceuticals and Tocris), TPEN (Calbiochem), and NEM (Roche) were purchased from companies indicated.
# recombinant IDE (rIDE) = molecular target: T2, recombinant IDE (rIDE) (Rattus norvegicus, UniProt P35559); assay: In vitro degradation by recombinant IDE (extent, kinetics, cleavage sites); format: biochemical; details: 30 min, 37°C
# T2 construct: purchased Calbiochem
# T2 sequence (P35559 whole entry): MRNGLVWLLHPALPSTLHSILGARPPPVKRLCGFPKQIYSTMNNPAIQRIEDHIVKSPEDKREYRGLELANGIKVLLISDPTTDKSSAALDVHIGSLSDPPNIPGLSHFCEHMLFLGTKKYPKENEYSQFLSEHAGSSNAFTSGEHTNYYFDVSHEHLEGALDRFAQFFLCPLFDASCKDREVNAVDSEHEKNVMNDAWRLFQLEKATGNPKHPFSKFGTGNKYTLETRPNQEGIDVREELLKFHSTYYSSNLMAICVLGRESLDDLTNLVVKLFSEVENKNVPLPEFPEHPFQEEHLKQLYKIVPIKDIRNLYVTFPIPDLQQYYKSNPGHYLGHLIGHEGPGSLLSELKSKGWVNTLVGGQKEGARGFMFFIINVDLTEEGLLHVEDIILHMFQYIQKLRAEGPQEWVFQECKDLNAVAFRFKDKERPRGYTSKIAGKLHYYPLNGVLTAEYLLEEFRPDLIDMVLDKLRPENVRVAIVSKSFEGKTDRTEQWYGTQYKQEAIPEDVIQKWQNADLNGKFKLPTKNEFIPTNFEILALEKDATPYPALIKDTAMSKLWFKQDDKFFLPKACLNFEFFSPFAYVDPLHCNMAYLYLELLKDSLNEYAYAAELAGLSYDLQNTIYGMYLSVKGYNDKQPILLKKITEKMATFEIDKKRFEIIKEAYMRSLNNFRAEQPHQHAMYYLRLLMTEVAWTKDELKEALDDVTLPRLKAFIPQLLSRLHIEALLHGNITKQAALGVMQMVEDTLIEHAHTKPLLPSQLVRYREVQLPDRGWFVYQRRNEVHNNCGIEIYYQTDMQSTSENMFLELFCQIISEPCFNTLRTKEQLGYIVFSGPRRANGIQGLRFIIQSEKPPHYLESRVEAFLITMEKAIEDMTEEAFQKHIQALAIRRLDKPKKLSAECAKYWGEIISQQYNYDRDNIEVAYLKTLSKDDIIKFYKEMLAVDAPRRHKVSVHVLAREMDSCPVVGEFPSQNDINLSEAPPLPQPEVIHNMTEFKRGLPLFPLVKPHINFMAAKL
# Method: (A) 10 ng of sp6BY or insulin-FITC were incubated with indicated amounts of rIDE for 30 min at 37°C. Remaining amounts of sp6BY and insulin-FITC were detected by measurement of fluorescence excitation. (B) Results of four independently performed experiments. Values represent the arithmetic mean ± SD. (C) Increasing concentrations of sp6BY were incubated with rIDE for 10 min at 37°C. The velocities were calculated from the degradation of sp6BY and normalized for the amount of rIDE. Data points represent values from three independent experiments in a double-reciprocal Lineweaver-Burk plot.
# Fig 8 Generation of stable p6 mutants. […] Reactions were stopped by adjusting the samples to 0.3% (w/v) […] and subsequently analyzed by mass spectrometry. Arrows above the primary sequence represent the detected cleavage sites, and initial and secondary cleavage sites are indicated as big or small arrows, respectively. […] (C) 10 ng of sp6BY were incubated with 250 μg/ml sp6 wt, 2xPTAPPA, 3xPTAPPA or only buffer and 5 μg S10 for 30 min at 37°C. sp6BY was detected by fluorescence emission and quantified. […]
# Typically 5 μg S10 were incubated with inhibitor or buffer and 20–100 ng sp6 at 37°C for 30 min. […] Remaining p6 was detected by Western blotting using an anti-p6 rabbit antiserum. […] In some experiments the amount of p6 was densitometrically quantified with the software AIDA (Raytest). […]
molecule,measurement,setting,value
CC[C@H](C)[C@H](NC(=O)[C@@H]1CCCN1C(=O)[C@H](CCC(=O)O)NC(=O)[C@H](CCC(N)=O)NC(=O)[C@H](CCCCN)NC(=O)[C@H](CCC(N)=O)NC(=O)[C@H](CO)NC(=O)[C@@H]1CCCN1C(=O)[C@@H](NC(=O)[C@@H](NC(=O)[C@@H](NC(=O)[C@H](CCC(=O)O)NC(=O)[C@H](CCC(=O)O)NC(=O)CNC(=O)[C@H](Cc1ccccc1)NC(=O)[C@H](CCCNC(=N)N)NC(=O)[C@H](Cc1ccccc1)NC(=O)[C@H](CO)NC(=O)[C@H](CCC(=O)O)NC(=O)[C@H](C)NC(=O)[C@@H]1CCCN1C(=O)[C@@H]1CCCN1C(=O)[C@H](C)NC(=O)[C@@H](NC(=O)[C@@H]1CCCN1C(=O)[C@H](C)NC(=O)[C@@H]1CCCN1C(=O)[C@@H]1CCCN1C(=O)[C@H](C)NC(=O)[C@@H](NC(=O)[C@@H]1CCCN1C(=O)[C@H](CCC(=O)O)NC(=O)[C@@H]1CCCN1C(=O)[C@H](CCCNC(=N)N)NC(=O)[C@H](CO)NC(=O)[C@H](CCC(N)=O)NC(=O)[C@@H](N)CC(C)C)[C@@H](C)O)[C@@H](C)O)[C@@H](C)O)[C@@H](C)O)[C@@H](C)O)C(=O)N[C@@H](CC(=O)O)C(=O)N[C@@H](CCCCN)C(=O)N[C@@H](CCC(=O)O)C(=O)N[C@@H](CC(C)C)C(=O)N[C@@H](Cc1ccc(O)cc1)C(=O)N1CCC[C@H]1C(=O)N[C@@H](CC(C)C)C(=O)N[C@@H](C)C(=O)N[C@@H](CO)C(=O)N[C@@H](CC(C)C)C(=O)N[C@@H](CCCNC(=N)N)C(=O)N[C@@H](CO)C(=O)N[C@@H](CC(C)C)C(=O)N[C@@H](Cc1ccccc1)C(=O)NCC(=O)N[C@@H](CO)C(=O)N[C@@H](CC(=O)O)C(=O)N1CCC[C@H]1C(=O)N[C@@H](CO)C(=O)N[C@@H](CO)C(=O)N[C@@H](CCC(N)=O)C(=O)O [2x],half-life in in vitro degradation assays,[1],up to 30 min
CC[C@H](C)[C@H](NC(=O)[C@@H]1CCCN1C(=O)[C@H](CCC(=O)O)NC(=O)[C@H](CCC(N)=O)NC(=O)[C@H](CCCCN)NC(=O)[C@H](CCC(N)=O)NC(=O)[C@H](CO)NC(=O)[C@@H]1CCCN1C(=O)[C@@H](NC(=O)[C@@H](NC(=O)[C@@H](NC(=O)[C@H](CCC(=O)O)NC(=O)[C@H](CCC(=O)O)NC(=O)CNC(=O)[C@H](Cc1ccccc1)NC(=O)[C@H](CCCNC(=N)N)NC(=O)[C@H](Cc1ccccc1)NC(=O)[C@H](CO)NC(=O)[C@H](CCC(=O)O)NC(=O)[C@H](CCC(=O)O)NC(=O)[C@@H]1CCCN1C(=O)[C@@H]1CCCN1C(=O)[C@H](C)NC(=O)[C@@H](NC(=O)[C@@H]1CCCN1C(=O)[C@H](CCC(=O)O)NC(=O)[C@@H]1CCCN1C(=O)[C@H](CCCNC(=N)N)NC(=O)[C@H](CO)NC(=O)[C@H](CCC(N)=O)NC(=O)[C@@H](N)CC(C)C)[C@@H](C)O)[C@@H](C)O)[C@@H](C)O)[C@@H](C)O)C(=O)N[C@@H](CC(=O)O)C(=O)N[C@@H](CCCCN)C(=O)N[C@@H](CCC(=O)O)C(=O)N[C@@H](CC(C)C)C(=O)N[C@@H](Cc1ccc(O)cc1)C(=O)N1CCC[C@H]1C(=O)N[C@@H](CC(C)C)C(=O)N[C@@H](C)C(=O)N[C@@H](CO)C(=O)N[C@@H](CC(C)C)C(=O)N[C@@H](CCCNC(=N)N)C(=O)N[C@@H](CO)C(=O)N[C@@H](CC(C)C)C(=O)N[C@@H](Cc1ccccc1)C(=O)NCC(=O)N[C@@H](CO)C(=O)N[C@@H](CC(=O)O)C(=O)N1CCC[C@H]1C(=O)N[C@@H](CO)C(=O)N[C@@H](CO)C(=O)N[C@@H](CCC(N)=O)C(=O)O [sp6],IC50,[2],13.8 µM
same,half-life,[3],~10 min
same,IC50,[4],~30.1 µM
same,degradation by recombinant IDE,"recombinant IDE (rIDE); 10 ng rIDE, IDE enzyme buffer, 10 ng sp6BY (fluorescence) or VLP/virion lysate (Western blot)",degraded by recombinant IDE
insulin-FITC: recombinant FITC-labeled insulin (Sigma),"amount of rIDE required to cleave with the same efficiency, relative to sp6","recombinant IDE (rIDE); 10 ng insulin-FITC, fluorescence, four independent experiments",100 fold
